Earlier results as cited in US8883204B2, “Tamper resistant co-extruded dosage form containing an active agent and an adverse agent and process of making same” (Purdue Pharma L.P., priority 2003, dated 2014).

Settings: administered orally

| SMILES | duration of action |
| --- | --- |
| C[C@H]1[C@H]2Cc3ccc(O)cc3[C@]1(C)CCN2CC1CC1 [cyclazocine] | ~24 h |
| O=C1CC[C@@]2(O)[C@H]3Cc4ccc(O)c5c4[C@@]2(CCN3CC2CC2)[C@H]1O5 [naltrexone] | ~24 h |
